Legend:
[1] = system: intracellular GSH in IGROV-1 cells; assay: Glutathione colorimetric detection assay; assay type: cell-based, human; details: IGROV-1, 50 μM, 24 h; statistical significance not confirmed
Protocol: This lowering was not observed for Ru-LBSO which is not active in this cell line. Other papers have shown a similar result by including L-BSO as an additional agent, therefore showing L-BSO remains inhibitory.
Once the agarose had set , the slides were submerged in alkaline lysis solution (1.3 M NaCl, 100 mM Na2EDTA, 0.1% sodium lauryl sarcosinate, 0.26 M NaOH pH > 13) and incubated overnight at 277 K in the dark. The following day the slides were rinsed for 20 min three times in the electrophoresis solution ([…] NaOH, 2mM Na 2EDTA pH 12.3). The slides were then placed into the electrophoresis tank with fresh electrophoresis buffer, 1 -2 mm above the slides. Electrophoresis was run at 18.3 V for 25 min. Once electrophoresis was complete, slides were rinsed in distilled water and placed in 2.5 µg/mL PI for 20 min. After staining, cells were rinsed in distilled water to remove excess stain. Twenty comet images per sample were taken by confocal microscopy and analysed by OpenComet. 10
1 x 10^6 IGROV-1 cells were seeded in a 6-well plate and incubated for 24 h at 310 K. All complexes (50 µM and 100 µM) were added to the wells and incubated for 24 h. […]
Percentage of IGROV -1 cancer cells in non -apoptotic, apoptotic (early and late) or necrotic phases determined by flow cytometry after 24 h treatment with Os/Ru L -BSO and glycine complexes. […] Standard deviations calculated for N=3. […]

[2] = Aqueous stability / hydrolysis monitored by 1H NMR; assay type: physicochemical; details: 3:7 v/v methanol-d4:D2O, 310 K, 36 h, then excess NaCl (130 mM) 24 h

Hydrolysis [2]: does not readily hydrolyze
Substance: [(p-cymene)Os(L-BSO)Cl] [Os-LBSO]
Lowering of intracellular GSH level [1]: ca. 50%
